Species: Rattus norvegicus
Assay: DrugMatrix - Regimen: Daily Repeat
Format: toxicity, organism-based, Sprague-Dawley
Design: regimen Daily Repeat, gender Male, age 6-8 weeks
Conditions: in vivo, po, 100 mg/kg, route oral GAVAGE, […]; for ABSOLUTE BASOPHIL / ABSOLUTE EOSINOPHIL / ABSOLUTE LYMPHOCYTE / ABSOLUTE MONOCYTE / ABSOLUTE SEGMENTED NEUTROPHIL / BASOPHIL / EOSINOPHIL / ERYTHROCYTE COUNT / HEMATOCRIT / HEMOGLOBIN / LEUKOCYTE COUNT / LYMPHOCYTE / MEAN CORPUSCULAR HEMOGLOBIN / MEAN CORPUSCULAR HEMOGLOBIN CONCENTRATION / MEAN CORPUSCULAR VOLUME / MONOCYTE / NEUTROPHIL / NUCLEATED RED BLOOD CELLS / PLATELET COUNT: tissue Blood; for ALANINE AMINOTRANSFERASE / ALBUMIN / ALKALINE PHOSPHATASE / ASPARTATE AMINOTRANSFERASE / BLOOD UREA NITROGEN / CARBON DIOXIDE / CHLORIDE / CHOLESTEROL / CREATINE PHOSPHOKINASE / CREATININE / GLUCOSE / LACTATE DEHYDROGENASE / LIPASE / PHOSPHORUS / POTASSIUM / SODIUM / TOTAL BILIRUBIN / TOTAL PROTEIN / URIC ACID: tissue Plasma
[1] = 72 h, dose level Low, time 3 day
[2] = 120 h, dose level High, time 5 day

`CC(C)(Oc1ccc(CCNC(=O)c2ccc(Cl)cc2)cc1)C(=O)O` [BEZAFIBRATE] was tested, and the “ABSOLUTE BASOPHIL” value [1] was 0 CELLS/uL, the “ABSOLUTE EOSINOPHIL” value [1] was 180.5 CELLS/uL and the “ABSOLUTE LYMPHOCYTE” value [1] was 13739.67 CELLS/uL. For the same compound, the “ABSOLUTE MONOCYTE” value [1] was 378 CELLS/uL, the “ABSOLUTE SEGMENTED NEUTROPHIL” value [1] was 1401.83 CELLS/uL and the BASOPHIL [1] was 0%. The EOSINOPHIL [1] was 1.17%, the “ERYTHROCYTE COUNT” value [1] was 5.45 x10E6/uL and the HEMATOCRIT [1] was 33.9%. For the same compound, the HEMOGLOBIN [1] was 13.37 G/DL, the “LEUKOCYTE COUNT” value [1] was 15.7 x10E3/uL and the LYMPHOCYTE [1] was 87.33%. The “MEAN CORPUSCULAR HEMOGLOBIN” value [1] was 24.55 pg, the “MEAN CORPUSCULAR HEMOGLOBIN CONCENTRATION” value [1] was 39.42 G/DL and the “MEAN CORPUSCULAR VOLUME” value [1] was 62.22 fL. For the same compound, the MONOCYTE [1] was 2.33%, the NEUTROPHIL [1] was 9.17% and the “NUCLEATED RED BLOOD CELLS” value [1] was 0 /100WBC. For the same compound, the “PLATELET COUNT” value [1] was 1134.83 x10E3/uL, the “ALANINE AMINOTRANSFERASE” value [1] was 55.83 u/L and the ALBUMIN [1] was 4.3 G/DL. The “ALKALINE PHOSPHATASE” value [1] was 373.17 u/L, the “ASPARTATE AMINOTRANSFERASE” value [1] was 81 u/L and the “BLOOD UREA NITROGEN” value [1] was 13.33 mg/dL. The “CARBON DIOXIDE” value [1] was 28.33 mmol/L, the CHLORIDE [1] was 103.17 MEQ/L and the CHOLESTEROL [1] was 50.33 mg/dL. The “CREATINE PHOSPHOKINASE” value [1] was 275.67 u/L, the CREATININE [1] was 0.14 mg/dL and the GLUCOSE [1] was 153.33 mg/dL. The “LACTATE DEHYDROGENASE” value [1] was 111.33 u/L, the LIPASE [1] was 9.67 u/L and the PHOSPHORUS [1] was 10.52 mg/dL. For the same compound, the POTASSIUM [1] was 6.12 MEQ/L, the SODIUM [1] was 143.38 MEQ/L and the “TOTAL BILIRUBIN” value [1] was 0.17 mg/dL. For the same compound, the “TOTAL PROTEIN” value [1] was 5.68 G/DL, the “URIC ACID” value [1] was 1.27 mg/dL and the BASOPHIL [2] was 0.3%. For the same compound, the EOSINOPHIL [2] was 0.42%, the “ERYTHROCYTE COUNT” value [2] was 6.75 x10E6/uL and the HEMATOCRIT [2] was 45.06%. The HEMOGLOBIN [2] was 14.3 G/DL, the “LEUKOCYTE COUNT” value [2] was 9.46 x10E3/uL and the LYMPHOCYTE [2] was 82.9%. For the same compound, the “MEAN CORPUSCULAR HEMOGLOBIN” value [2] was 21.18 pg, the “MEAN CORPUSCULAR HEMOGLOBIN CONCENTRATION” value [2] was 31.76 G/DL and the “MEAN CORPUSCULAR VOLUME” value [2] was 66.76 fL. The MONOCYTE [2] was 2.08%, the NEUTROPHIL [2] was 12.9% and the “PLATELET COUNT” value [2] was 1359.2 x10E3/uL. For the same compound, the “ALANINE AMINOTRANSFERASE” value [2] was 30.4 u/L, the ALBUMIN [2] was 3.86 G/DL and the “ALKALINE PHOSPHATASE” value [2] was 393.2 u/L. The “ASPARTATE AMINOTRANSFERASE” value [2] was 76.8 u/L, the “BLOOD UREA NITROGEN” value [2] was 8 mg/dL and the CHLORIDE [2] was 110.2 MEQ/L. For the same compound, the CHOLESTEROL [2] was 53.8 mg/dL, the “CREATINE PHOSPHOKINASE” value [2] was 309.2 u/L and the CREATININE [2] was 0.58 mg/dL. The GLUCOSE [2] was 111.8 mg/dL, the PHOSPHORUS [2] was 13.26 mg/dL and the POTASSIUM [2] was 5.98 MEQ/L. The SODIUM [2] was 150.8 MEQ/L, the “TOTAL BILIRUBIN” value [2] was 0.2 mg/dL and the “TOTAL PROTEIN” value [2] was 5.94 G/DL. The BASOPHIL (dose level High, time 28 day) was 0.53%, the EOSINOPHIL (dose level High, time 28 day) was 0.56% and the “ERYTHROCYTE COUNT” value (dose level High, time 28 day) was 7.67 x10E6/uL. The HEMATOCRIT (dose level High, time 28 day) was 46.81%, the HEMOGLOBIN (dose level High, time 28 day) was 15.51 G/DL and the “LEUKOCYTE COUNT” value (dose level High, time 28 day) was 10.2 x10E3/uL. The LYMPHOCYTE (dose level High, time 28 day) was 83.76%, the “MEAN CORPUSCULAR HEMOGLOBIN” value (dose level High, time 28 day) was 20.22 pg and the “MEAN CORPUSCULAR HEMOGLOBIN CONCENTRATION” value (dose level High, time 28 day) was 33.13 G/DL. The “MEAN CORPUSCULAR VOLUME” value (dose level High, time 28 day) was 61.05 fL, the MONOCYTE (dose level High, time 28 day) was 1.65% and the NEUTROPHIL (dose level High, time 28 day) was 12.36%. The “PLATELET COUNT” value (dose level High, time 28 day) was 1339.5 x10E3/uL, the “ABSOLUTE BASOPHIL” value (dose level Low, time 7 day) was 0 CELLS/uL and the “ABSOLUTE EOSINOPHIL” value (dose level Low, time 7 day) was 36.5 CELLS/uL. For the same compound, the “ABSOLUTE LYMPHOCYTE” value (dose level Low, time 7 day) was 7716 CELLS/uL, the “ABSOLUTE MONOCYTE” value (dose level Low, time 7 day) was 109.33 CELLS/uL and the “ABSOLUTE SEGMENTED NEUTROPHIL” value (dose level Low, time 7 day) was 821.5 CELLS/uL. For the same compound, the BASOPHIL (dose level Low, time 7 day) was 0%, the EOSINOPHIL (dose level Low, time 7 day) was 0.5% and the “ERYTHROCYTE COUNT” value (dose level Low, time 7 day) was 5.31 x10E6/uL. For the same compound, the HEMATOCRIT (dose level Low, time 7 day) was 33.28%, the HEMOGLOBIN (dose level Low, time 7 day) was 13.1 G/DL and the “LEUKOCYTE COUNT” value (dose level Low, time 7 day) was 8.68 x10E3/uL. For the same compound, the LYMPHOCYTE (dose level Low, time 7 day) was 88.67%, the “MEAN CORPUSCULAR HEMOGLOBIN” value (dose level Low, time 7 day) was 24.67 pg and the “MEAN CORPUSCULAR HEMOGLOBIN CONCENTRATION” value (dose level Low, time 7 day) was 39.37 G/DL. For the same compound, the “MEAN CORPUSCULAR VOLUME” value (dose level Low, time 7 day) was 62.68 fL, the MONOCYTE (dose level Low, time 7 day) was 1.33% and the NEUTROPHIL (dose level Low, time 7 day) was 9.5%. For the same compound, the “NUCLEATED RED BLOOD CELLS” value (dose level Low, time 7 day) was 0 /100WBC, the “PLATELET COUNT” value (dose level Low, time 7 day) was 1167.33 x10E3/uL and the “ALANINE AMINOTRANSFERASE” value (dose level High, time 28 day) was 33.6 u/L. The ALBUMIN (dose level High, time 28 day) was 4.04 G/DL, the “ALKALINE PHOSPHATASE” value (dose level High, time 28 day) was 358.2 u/L and the “ASPARTATE AMINOTRANSFERASE” value (dose level High, time 28 day) was 65.4 u/L. For the same compound, the “BLOOD UREA NITROGEN” value (dose level High, time 28 day) was 15.6 mg/dL, the CHLORIDE (dose level High, time 28 day) was 108.6 MEQ/L and the CHOLESTEROL (dose level High, time 28 day) was 43.2 mg/dL. For the same compound, the “CREATINE PHOSPHOKINASE” value (dose level High, time 28 day) was 130.9 u/L, the CREATININE (dose level High, time 28 day) was 0.51 mg/dL and the GLUCOSE (dose level High, time 28 day) was 147.9 mg/dL. The PHOSPHORUS (dose level High, time 28 day) was 11.62 mg/dL, the POTASSIUM (dose level High, time 28 day) was 6.83 MEQ/L and the SODIUM (dose level High, time 28 day) was 152.6 MEQ/L. For the same compound, the “TOTAL BILIRUBIN” value (dose level High, time 28 day) was 0.2 mg/dL, the “TOTAL PROTEIN” value (dose level High, time 28 day) was 6.41 G/DL and the “ALANINE AMINOTRANSFERASE” value (dose level Low, time 7 day) was 52.17 u/L. The ALBUMIN (dose level Low, time 7 day) was 4.67 G/DL, the “ALKALINE PHOSPHATASE” value (dose level Low, time 7 day) was 346.67 u/L and the “ASPARTATE AMINOTRANSFERASE” value (dose level Low, time 7 day) was 68.17 u/L. The “BLOOD UREA NITROGEN” value (dose level Low, time 7 day) was 17.67 mg/dL, the “CARBON DIOXIDE” value (dose level Low, time 7 day) was 30.83 mmol/L and the CHLORIDE (dose level Low, time 7 day) was 102.83 MEQ/L. For the same compound, the CHOLESTEROL (dose level Low, time 7 day) was 57.83 mg/dL, the “CREATINE PHOSPHOKINASE” value (dose level Low, time 7 day) was 307.17 u/L and the CREATININE (dose level Low, time 7 day) was 0.24 mg/dL. For the same compound, the GLUCOSE (dose level Low, time 7 day) was 145.67 mg/dL, the “LACTATE DEHYDROGENASE” value (dose level Low, time 7 day) was 85.5 u/L and the LIPASE (dose level Low, time 7 day) was 9.33 u/L. The PHOSPHORUS (dose level Low, time 7 day) was 11.1 mg/dL, the POTASSIUM (dose level Low, time 7 day) was 5.85 MEQ/L and the SODIUM (dose level Low, time 7 day) was 143.98 MEQ/L. The “TOTAL BILIRUBIN” value (dose level Low, time 7 day) was 0.1 mg/dL, the “TOTAL PROTEIN” value (dose level Low, time 7 day) was 6.2 G/DL and the “URIC ACID” value (dose level Low, time 7 day) was 0.62 mg/dL.
